{
  "source": "patent US6087358A",
  "about": "(priority 1997, dated 2000)",
  "system": "Helicobacter pylori Strain 4187E",
  "assay": "In vivo activity against Helicobacter pylori strain 4187E in mice",
  "design": "species or system in outbred female white mice",
  "conditions": "oral gavage, four days",
  "from_the_text": "Outbred female white mice (20 grams) were infected by oral gavage with 10^7 -10^8 colony forming units of H. pylori strain 4187E (originally isolated from a patient with a duodenal ulcer). […] Treatment continued for four days. Clarithromycin, administered at the same concentration and for the same duration, was included as a positive control. One group of animals also received an equal volume of formulation vehicle alone, to provide a negative control.\nFive days after cessation of treatment, all animals were sacrificed, the stomachs were removed, opened, and the contents washed out. The entire mucosal surface was then spread evenly over the surface of an agar plate containing antibiotics appropriate for the prevention of growth of microorganisms other than Helicobacter spp. After seven days incubation under microaeropilic conditions at 37° C., culture plates were evaluated for bacterial growth.",
  "data": [
    {"smiles": "O=[N+]([O-])c1cn2c(n1)OC[C@@H](OCc1ccc(OC(F)(F)F)cc1)C2", "note": "[PA-824, 3S 4-(Trifluromethoxy)benzyloxy-6-nitro-2H-3,4-dihydro-[2-1b]imidazopyran]", "values": [
      {"measurement": "% Eradication", "setting": "once daily 25 mg/kg", "result": 0, "unit": "%"},
      {"measurement": "% Eradication", "setting": "twice daily 5 mg/kg", "result": 10, "unit": "%"},
      {"measurement": "% Eradication", "setting": "twice daily 50 mg/kg", "result": 100, "unit": "%"}
    ]}
  ]
}
